From US10717746B2, “Chemical compounds” (ASTRAZENECA AB, priority 2015, dated 2020)
Counter-ions that a name gives are not always drawn. Like-named read-outs stand apart in the source and are kept apart here.

What was measured:
CDK9/CycT1 [1] = molecular target: T1, CDK9/CycT1 (Homo sapiens (Human), UniProt P50750); experiment: CDK9 kinase assay, high ATP concentration (5 mM ATP); assay type: biochemical; conditions: 1.5 nM CDK9, read-out: CDK9 High ATP conc. (IC50)
Experimental: (§1) Activity of CDK9 was determined in-vitro using a mobility shift assay on a Caliper LC3000 reader (Caliper/PerkinElmer), which measures fluorescence of a phosphorylated and unphosphorylated fluorescent peptide substrate and calculates a ratiometric value to determine percent turnover. Phosphorylation of the peptide in the presence and absence of the compound of interest was determined. Enzyme/substrate/adenosine triphosphate (ATP) mix (3 nM CDK9/CycT1, 6 μM ATP, 1.5 μM CDK9 peptide substrate (FITC-X-GSRTPMY-NH2 (X: epsilon aminocaproic acid)), 50 mM HEPES (pH7.2), 1 mM dithiothreitol, 0.01% tween 20, 50 μg/mL bovine serum albumin, (final assay concentration)) (5 μl) was preincubated with 2 μl of compound for 15 minutes at 25° C. Reactions were initiated with 5 μl of 24 mM MgCl2 (10 mM final assay concentration) in buffer (50 mM HEPES (pH7.2), 1 mM dithiothreitol, 0.01% tween 20, 50 μg/mL bovine serum albumin, (final assay concentration) and incubated at 25° C. for 90 minutes and reactions were stopped by addition of 5 μl of Stop mix consisting of 65 mM HEPES (pH7.2), 35.5 mM EDTA, 0.227% Coatin Reagent 3 (Caliper/PerkinElmer), and 0.003% Tween. Phosphorylated and unphosphorylated substrate was detected by a Caliper LC3000 reader (Caliper/PerkinElmer) in the presence of separation buffer consisting of 100 mM HEPES (pH7.2), 15.8 mM EDTA, 0.1% Coatin Reagent 3 (Caliper/PerkinElmer), 0.015% Brij-35, 5% DMSO, and 5.6 mM MgCl2. CDK9 enzyme was acquired from Carna Biosciences (Catalogue number 04-110), the CDK9 peptide substrate was acquired from Intonation (Boston, Mass.; Custom-made).
High ATP assays were run the same way with the following modifications: the final assay concentration of CDK9 was 1.5 nM and the final assay concentration of ATP was 5 mM.

[2] = tested on: phosphorylation of RNA Polymerase II (RNAPII) at the Ser2 site in MCF7 cells; experiment: MCF7 pSer2 RNAPII MOA assay (immunofluorescence); assay type: cell-based; conditions: 6-hr treatment, read-out: p-Ser 2 RNAPII (IC50)
Experimental: MCF7 pSer2 RNAPII MOA Assay
This is an immunofluorescence assay to determine the effect of CDK9 inhibitors on phosphorylation of RNA Polymerase II (RNAPII) at the Ser2 site in the breast cancer cell line, MCF7. On day one, 2500 MCF7 cells/well were seeded in 30 μl of growth media (RPMI+10% FBS+1% L-Glu+P/S) in 384-well black-wall clear-bottom plates, incubate plates overnight at 37° C. incubator. On the second day, the cells were treated with CDK9 inhibitors (7 point dose response ranging from 3 μM to 0.004 μM) using an ECHO liquid handler (Labcyte). After 6-hr treatment at 37° C. incubator, the cells were fixed with 30 µl/well 7.4% paraformaldehyde for 15 min at room temperature; the cells were washed twice with PBS, then permeabilized with 0.3% Triton X/PBS for 5 min at room temperature. After washing cells with PBS, the cells were incubated with 1:2000 diluted Anti-Ser2 Phospho-RNA pol II antibody (Covance MMS-129R) in 3% FBS/0.1% PBST overnight at 4° C. On the next day, the cells were washed twice with 0.1% PBST, then incubated with 1:1000 diluted Alexa Fluor 488 Goat-anti-mouse antibody (Life Technologies A-11001) and 1:4000 diluted DAPI at room temperature in dark. After one hour incubation, the cells were washed twice with 0.1% PBST, and once with PBS. The plates where sealed and read on an Acumen eX3 microplate cytometer (TTP Labtech) to assess phosphorylation level in each well.

CDK9/CycT1 [3] = molecular target: T1, CDK9/CycT1; experiment: CDK9 kinase assay, ATP concentration at Km (mobility shift, Caliper LC3000); assay type: biochemical; conditions: 6 μM ATP, 3 nM CDK9/CycT1; read-out: CDK9 ATP conc. at Km (IC50)
Experimental: as §1

MV411 cells = experiment: MV411 caspase activity assay (Caspase-Glo 3/7); assay type: cell-based; conditions: Homo sapiens, MV4-11, 6 h, 6-hr treatment, caspase 3/7 induction
Experimental: MV411 Caspase Activity Assay
This is a cell assay to measure the induction of caspase activity in the acute myeloid leukemia cell line, MV411 after 6-hr treatment with CDK9 inhibitors. On the first day, 3000 MV411 cells/well were seeded in 50 μl of growth media (IMDM+10% FBS+2% L-Glu+P/S) in 384-well white plates, incubate plates in 37° C. incubator overnight. […] After 6 hour incubation in 37° C. incubator, 25 μl of Caspase-Glo 3/7 reagent (Promega) per well was added into each well, and plates were incubated at room temperature for 30 min in dark. The plates were read on an Infinite M200 microplate reader (Tecan) with a 100 ms integration time.

T1 sequence (P50750 whole entry): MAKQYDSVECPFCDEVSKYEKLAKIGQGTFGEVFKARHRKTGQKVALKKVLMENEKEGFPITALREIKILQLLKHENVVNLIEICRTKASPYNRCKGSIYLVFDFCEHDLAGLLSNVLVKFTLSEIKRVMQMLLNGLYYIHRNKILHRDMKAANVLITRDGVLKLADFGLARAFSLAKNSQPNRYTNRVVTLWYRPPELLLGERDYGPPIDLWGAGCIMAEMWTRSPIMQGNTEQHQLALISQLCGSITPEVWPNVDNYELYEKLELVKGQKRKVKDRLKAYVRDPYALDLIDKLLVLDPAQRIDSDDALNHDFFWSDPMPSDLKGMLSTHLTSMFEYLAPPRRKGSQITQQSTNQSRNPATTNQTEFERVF
T1 sequence (O60563 whole entry partner): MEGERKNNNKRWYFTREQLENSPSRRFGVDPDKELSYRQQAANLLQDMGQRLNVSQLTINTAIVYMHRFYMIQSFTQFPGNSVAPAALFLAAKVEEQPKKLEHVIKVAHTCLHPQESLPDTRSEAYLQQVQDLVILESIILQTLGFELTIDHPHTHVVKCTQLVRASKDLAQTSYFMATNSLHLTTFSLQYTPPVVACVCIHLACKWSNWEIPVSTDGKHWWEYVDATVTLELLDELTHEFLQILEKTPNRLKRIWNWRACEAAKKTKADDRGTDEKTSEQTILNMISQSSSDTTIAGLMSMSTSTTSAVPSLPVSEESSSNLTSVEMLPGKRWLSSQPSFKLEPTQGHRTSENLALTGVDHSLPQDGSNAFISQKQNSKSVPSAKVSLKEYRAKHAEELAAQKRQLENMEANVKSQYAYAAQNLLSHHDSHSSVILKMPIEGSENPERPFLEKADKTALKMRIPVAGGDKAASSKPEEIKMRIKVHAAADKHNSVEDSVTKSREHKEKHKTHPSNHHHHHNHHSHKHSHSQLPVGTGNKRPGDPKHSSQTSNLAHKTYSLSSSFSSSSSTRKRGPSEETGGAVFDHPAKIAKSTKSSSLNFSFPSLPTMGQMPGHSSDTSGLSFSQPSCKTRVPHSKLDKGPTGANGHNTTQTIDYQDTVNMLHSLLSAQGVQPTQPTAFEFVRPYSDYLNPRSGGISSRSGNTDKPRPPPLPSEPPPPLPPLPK

IC50 (CDK9/CycT1 [1]) [nM] | IC50 ([2]; Homo sapiens, MCF7, 6 h) [nM] | IC50 (CDK9/CycT1 [3]) [nM] | IC50 (MV411 cells) [nM] | IC50 [2] [nM] | SMILES
2130 | > 1950 | 28 | 2520 | – | CC(=O)N[C@H]1CCC[C@H](C(=O)Nc2cc(-c3cnn4c3CC(C)(C)C4)c(F)cn2)C1 (relative stereo) [Example 84, (1S,3S)-3-acetamido-N-(4-(5,5-dimethyl-5,6-dihydro-4H-pyrrolo[1,2-b]pyrazol-3-yl)-5-fluoropyridin-2-yl)cyclohexane-1-carboxamide]
27 | – | < 3 | – | 76 | CC(=O)N[C@@H]1CCC[C@H](C(=O)Nc2cc(-c3cnn4c3CC(C)C4)c(Cl)cn2)C1 (single isomer, unassigned) [Example 41]
26 | 36 | < 3 | 92 | – | CC(=O)N[C@@H]1CCC[C@H](C(=O)Nc2cc(-c3cnn4c3CC(C)C4)c(Cl)cn2)C1 (single isomer, unassigned) [Example 42]
– | – | – | – | > 2440 | CC(=O)N[C@H]1CCC[C@H](C(=O)Nc2cc(-c3cnn4c3CC(C)(C)C4)c(Cl)cn2)C1 (single isomer, unassigned) [Example 59, trans-3-acetamido-N-(5-chloro-4-(5,5-dimethyl-5,6-dihydro-4H-pyrrolo[1,2-b]pyrazol-3-yl)pyridin-2-yl)cyclohexanecarboxamide]
– | – | – | – | > 3000 | CC(=O)N[C@H]1CCC[C@H](C(=O)Nc2cc(-c3cnn4c3CCCC4)c(Cl)cn2)C1 (single isomer, unassigned) [Example 61, trans-3-acetamido-N-(5-chloro-4-(4,5,6,7-tetrahydropyrazolo[1,5-a]pyridin-3-yl)pyridin-2-yl)cyclohexanecarboxamide]
– | – | – | – | 333 | CC(=O)N[C@H]1CCC[C@H](C(=O)Nc2cc(-c3cnn4c3CCCC4)c(Cl)cn2)C1 (single isomer, unassigned) [Example 62, trans-3-acetamido-N-(5-chloro-4-(4,5,6,7-tetrahydropyrazolo[1,5-a]pyridin-3-yl)pyridin-2-yl)cyclohexanecarboxamide]
< 4 | – | < 3 | – | 37 | CC(=O)N[C@@H]1CCC[C@H](C(=O)Nc2cc(-c3cnn4c3CC(C)CC4)c(Cl)cn2)C1 (single isomer, unassigned) [Example 65]
53 | 131 | < 3 | – | – | CC(=O)N[C@@H]1CCC[C@H](C(=O)Nc2cc(-c3cnn4c3CCC(C)C4)c(Cl)cn2)C1 (single isomer, unassigned) [Example 68]
246 | – | 5 | – | 193 | CC(=O)N[C@@H]1CCC[C@H](C(=O)Nc2cc(-c3cnn4c3CCC(C)C4)c(Cl)cn2)C1 (single isomer, unassigned) [Example 69]
20 | – | < 3 | – | 73 | COC1CCc2c(-c3cc(NC(=O)[C@H]4CCC[C@@H](NC(C)=O)C4)ncc3Cl)cnn2C1 (single isomer, unassigned) [Example 70]
1720 | – | 16 | – | > 2350 | COC1CCc2c(-c3cc(NC(=O)[C@H]4CCC[C@@H](NC(C)=O)C4)ncc3Cl)cnn2C1 (single isomer, unassigned) [Example 71]
39 | – | < 3 | – | 218 | COC1CCn2ncc(-c3cc(NC(=O)[C@H]4CCC[C@@H](NC(C)=O)C4)ncc3Cl)c2C1 (single isomer, unassigned) [Example 73]
< 3 | – | < 3 | – | 10 | CC(=O)N[C@@H]1CCC[C@H](C(=O)Nc2cc(-c3cnn4c3C(O)C(C)(C)C4)c(Cl)cn2)C1 (single isomer, unassigned) [Example 79]
135 | – | 4 | – | 247 | CC(=O)N[C@@H]1CCC[C@H](C(=O)Nc2cc(-c3cnn4c3C(O)C(C)(C)C4)c(Cl)cn2)C1 (single isomer, unassigned) [Example 80]
– | 130 | – | 120 | – | CC(=O)N[C@@H]1CCC[C@H](C(=O)Nc2cc(-c3cnn4c3CCCC4)c(Cl)cn2)C1 [Example 2, (1S,3R)-3-acetamido-N-(5-chloro-4-(4,5,6,7-tetrahydropyrazolo[1,5-a]pyridin-3-yl)pyridin-2-yl)cyclohexanecarboxamide]
– | > 3000 | – | 4090 | – | CC(=O)N[C@H]1CCC[C@@H](C(=O)Nc2cc(-c3cnn4c3CCCC4)c(Cl)cn2)C1 [Example 9, (1R,3S)-3-acetamido-N-(5-chloro-4-(4,5,6,7-tetrahydropyrazolo[1,5-a]pyridin-3-yl)pyridin-2-yl)cyclohexanecarboxamide]
– | 23 | – | 14 | – | CC(=O)N[C@@H]1CCC[C@H](C(=O)Nc2cc(-c3cnn4c3CC(C)(C)C4)c(Cl)cn2)C1 [Example 14, (1S,3R)-3-acetamido-N-(5-chloro-4-(5,5-dimethyl-5,6-dihydro-4H-pyrrolo[1,2-b]pyrazol-3-yl)pyridin-2-yl)cyclohexanecarboxamide]
– | 36 | – | 54 | – | CC(=O)N[C@@H]1CCC[C@H](C(=O)Nc2cc(-c3cnc4n3CC(C)(C)C4)c(Cl)cn2)C1 [Example 22, (1S,3R)-3-acetamido-N-(5-chloro-4-(6,6-dimethyl-6,7-dihydro-5H-pyrrolo[1,2-a]imidazol-3-yl)pyridin-2-yl)cyclohexanecarboxamide]
2640 | 1800 | 36 | – | – | N[C@@H]1CCC[C@H](C(=O)Nc2cc(-c3cnn4c3CCCC4)c(Cl)cn2)C1 [Example 31b, (1S,3R)-3-amino-N-(5-chloro-4-(4,5,6,7-tetrahydropyrazolo[1,5-a]pyridin-3-yl)pyridin-2-yl)cyclohexanecarboxamide dihydrochloride]
– | 307 | – | 416 | – | CC(=O)N[C@H]1CCC[C@@H](C(=O)Nc2cc(-c3cnn4c3CC(C)(C)C4)c(Cl)cn2)C1 [Example 43, (1R,3S)-3-acetamido-N-(5-chloro-4-(5,5-dimethyl-5,6-dihydro-4H-pyrrolo[1,2-b]pyrazol-3-yl)pyridin-2-yl)cyclohexanecarboxamide]
– | 40 | – | 74 | – | CC(=O)N[C@@H]1CCC[C@H](C(=O)Nc2cc(-c3cnn4c3CC(C)(C)C4)c(C)cn2)C1 [Example 47, (1S,3R)-3-acetamido-N-(4-(5,5-dimethyl-5,6-dihydro-4H-pyrrolo[1,2-b]pyrazol-3-yl)-5-methylpyridin-2-yl)cyclohexanecarboxamide]
4 | – | < 3 | – | – | CC1(C)Cc2c(-c3cc(NC(=O)[C@H]4CCC[C@@H](NC(=O)CCO)C4)ncc3Cl)cnn2C1 [Example 52, (1S,3R)—N-(5-chloro-4-(5,5-dimethyl-5,6-dihydro-4H-pyrrolo[1,2-b]pyrazol-3-yl)pyridin-2-yl)-3-(3-hydroxypropanamido)cyclohexanecarboxamide]
